Results on one molecule are retold here after ChEMBL document CHEMBL4616683, “Inhibitors of Hypoxia-Inducible Factors as Treatment for Cancer” (ACS Med Chem Lett, 2020).

The target in assay [1] is T1, Endothelial PAS domain-containing protein 1 (Homo sapiens, UniProt Q99814).
Description: Inhibition of human recombinant His6Gb1-tagged HIF2alpha PAS B domain (240 to 350 residues)/human recombinant His6/FLAG-tagged ARNT PAS B domain (356 to 470 residues) interaction incubated for 15 mins by AlphaScreen assay
In assay [2] the target is T1, Endothelial PAS domain-containing protein 1. The source holds these as a separate data set.
Description: Inhibition of HIF2-alpha in human 786-0 cells harboring HRE-Luc2P reporter construct incubated for 48 hrs by ONE-Glo EX reagent based luminescence assay

Some results are limits rather than exact numbers.

T1 sequence (Q99814 whole entry, the tested form may be a part): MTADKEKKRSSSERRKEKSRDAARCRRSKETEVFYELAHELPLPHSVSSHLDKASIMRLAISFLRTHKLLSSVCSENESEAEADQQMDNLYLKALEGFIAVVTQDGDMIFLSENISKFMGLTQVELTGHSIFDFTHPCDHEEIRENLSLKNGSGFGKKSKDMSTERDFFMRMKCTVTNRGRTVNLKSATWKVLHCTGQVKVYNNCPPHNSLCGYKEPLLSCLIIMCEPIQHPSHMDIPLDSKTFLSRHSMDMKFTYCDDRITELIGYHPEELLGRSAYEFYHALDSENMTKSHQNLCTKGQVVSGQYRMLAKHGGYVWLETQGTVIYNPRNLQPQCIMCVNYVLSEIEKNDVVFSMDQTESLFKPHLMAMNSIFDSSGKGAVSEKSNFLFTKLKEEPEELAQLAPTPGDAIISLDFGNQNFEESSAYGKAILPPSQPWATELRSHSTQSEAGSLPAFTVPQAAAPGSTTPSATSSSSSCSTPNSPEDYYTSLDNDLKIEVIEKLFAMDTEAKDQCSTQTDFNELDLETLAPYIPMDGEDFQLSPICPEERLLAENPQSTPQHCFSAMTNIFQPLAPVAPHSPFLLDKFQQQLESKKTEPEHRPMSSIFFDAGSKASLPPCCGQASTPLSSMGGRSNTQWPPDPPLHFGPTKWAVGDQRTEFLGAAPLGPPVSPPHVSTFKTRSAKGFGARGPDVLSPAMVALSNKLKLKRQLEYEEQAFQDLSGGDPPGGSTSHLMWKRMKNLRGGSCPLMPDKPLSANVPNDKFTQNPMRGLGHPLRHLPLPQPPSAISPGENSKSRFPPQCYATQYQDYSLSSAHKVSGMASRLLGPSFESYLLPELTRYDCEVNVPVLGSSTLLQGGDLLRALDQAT

For orientation: IC50 means the point on the concentration scale where inhibition reaches its midpoint. A low value points to greater potency. For the molecule `Cn1nc(C(F)(F)F)cc1-c1sc(S(C)(=O)=O)c2c1CCC(F)(F)[C@H]2O`, the IC50 in assay [1] and in assay [2] was above 1000 nM each time.
